Patent US20050209295A1, “Methimazole derivatives and tautomeric cyclic thiones to inhibit cell adhesion” (priority 2004, published 2005)

How the values were obtained:
Type in all cases: cell-based, human
NF-κB = experiment: EMSA of TNF-α induced NF-κB binding activity to VCAM-1 promoter; conditions: 0.5 mM; 2 hr. TNF-α; HAEC nuclear extract
Experimental: Nuclear Extracts and EMSA: Nuclear extracts are prepared from harvested HAEC using NE-PER® extraction reagents (Pierce Chemical Co.; Rockford, Ill.) in the presence of a protease inhibitor cocktail (PMSF, Leupeptin, Pepstatin-A). Oligonucleotides (Biosynthesis Inc.; Lewisville, Tex.) are annealed and precipitated double stranded oligonucleotides end labeled with γ-^32P-ATP using T4 polynucleotide kinase enzyme. Binding reactions (20 min., room temperature) included ^32P-labeled probe (activity 100,000 cpm), 3-6 μg HAEC nuclear extract, 1 μg poly(dI-dC), 1 mM DTT, 10% glycerol and 1× binding buffer. Binding buffer (10×) for NF-κB EMSA is 200 mM HEPES-KOH (pH7.9), 340 mM KCl, 50 mM MgCl2, 5 mM EDTA (pH 8.0), 1% Triton X-100. Binding buffer (10×) for IRF-1 EMSA is 100 mM Tris-HCL (pH 7.5), 500 mM NaCl, 50 mM MgCl2, 10 mM EDTA (pH 8.0). In competition studies, nuclear extracts are incubated with 100 fold molar excess of unlabeled double stranded oligonucleotide. In supershift studies, nuclear extracts are incubated with 2 μg of appropriate antibodies. After the incubations, reaction mixtures are electrophoresed (160V, room temperature) on 5% non-denaturing polyacrylamide gels containing 5% glycerol in 1×TBE (50 mM Tris, 50 mM boric acid, and 1 mM EDTA). Gels are dried and autoradiographed. Each experiment is replicated at least twice. […]

VCAM-1 = experiment: ELISA of TNF-α induced VCAM-1 protein on HAEC
Experimental: (§1) Cell culture and treatment of HAEC: Human aortic endothelial cells (HAEC; Cambrex Bio Science Walkersville, Inc., Walkersville, Md.) are cultured in M199 supplemented with 8% FBS, 100 μg/ml heparin, 10 ng/ml endothelial growth factor, 100 μg/ml hypothalamus extract, 2 mM L-glutamine, 1% non-essential amino acids, 100 units/ml penicillin and 100 μg/ml streptomycin. HAEC are subcultured on gelatin pre-coated: 96-well tissue culture plates (Corning Incorporated; Corning, N.Y.) for viability assays and ELISA; 100-mm tissue culture dishes (BD Falcon; Franklin Lakes, N.J.) for Northern blot analyses, Western blot analyses and EMSA; 35-mm tissue culture dishes (Corning) for adhesion assays and on 24-well tissue culture plates for luciferase promoter assays (BD Falcon). All experiments are performed with confluent HAEC monolayers. Unless noted otherwise, HAEC are treated with 25 ng/ml TNF-α, in the absence or presence of C-10 or 0.25% DMSO (carrier control for C-10), for 2-24 hrs. The concentration of DMSO is held constant at 0.25% (unless indicated otherwise) for all of the C-10 conditions.
HAEC are washed with cold HBSS+, fixed in 1% formaldehyde at 4° C. for 20 min., washed with cold HBSS+, and incubated in cold M199 containing 8% FBS. Unless otherwise noted, from this point on all antibody dilutions and washes are carried out with M199 containing 8% FBS. Murine mAbs (primary mAbs) to ECAMs are added (10 μg/ml) and the HAEC incubated at 4° C. for 20 min. Following the incubation, the wells are washed and a peroxidase conjugated polyclonal (secondary) antibody to mouse IgG is added (diluted 1:50). After a 20 min. incubation at 4° C., the wells are washed and treated with OPD dissolved in phosphate citrate buffer containing sodium perborate. Following a 10 min. incubation at room temperature, the absorbance of the fluid in each well is determined at 450 nm using a micro-well plate spectrophotometer (Molecular Devices; Sunnyvale, Calif.). In every experiment, each condition is run in triplicate wells.

IRF-1 = experiment: TNF-alpha-induced IRF-1 protein levels (Western blot)
Experimental: as §1
Western blot analysis: Whole cell lysates are prepared in lysis buffer (150 mM NaCl, 1% IGEPAL CA-630, 50 mM Tris-HCL pH 8.0). 20 μg of lysates are then resolved on 4-12% Bis-Tris PAGE gels under denaturing conditions using the NuPAGE Bis-Tris System (Invitrogen; Carlsbad, Calif.). Proteins are transferred to nitrocellulose membranes, which are probed with IRF-1 antibody. Subsequent binding of HRP conjugated goat anti-rabbit Ab (sc-2054, Santa Cruz Biotechnology, Inc.) is detected using Lumigen PS-3 detection reagents (Amersham Pharmacia Biotech.; Piscataway, N.J.).

Cn1c(-c2ccccc2)cnc1S [5-Phenylmethimazole]
effect on TNF-α dependent NF-κB complex formation (EMSA) (NF-κB): no effect
concentration at which significant reduction of TNF-α induced VCAM-1 protein expression is observed (VCAM-1; 4 hr. TNF-α): ≥ 0.25 mM
effect on TNF-α induced protein expression of VCAM-1 (VCAM-1; 4 hr. TNF-α): significantly reduces
concentration at which significant reduction of TNF-α induced VCAM-1 protein expression is observed (VCAM-1; 24 hr. TNF-α): ≥ 0.05 mM
effect on TNF-α induced protein expression of VCAM-1 (VCAM-1; 24 hr. TNF-α): significantly reduces
effect on TNF-α induced IRF-1 protein expression (IRF-1; 0.5 mM or 1 mM, 2 hr. TNF-α, HAEC): reduced
% INHIBITION of TNF-alpha-induced IRF-1 Protein levels (IRF-1; 10 :M, mean ± SD): 76 ± 12%
inhibition at 5000 µM (IRF-1; Homo sapiens, 5 mM, mean ± SD): 95 ± 5%
